Measurements published in patent US20200140444A1, “INHIBITORS OF MUTANT ISOCITRATE DEHYDROGENASES AND COMPOSITIONS AND METHODS THEREOF” (IsoCure Biosciences Inc., priority 2017, published 2020).

How the values were obtained:
IDH1 (R132C) = IDH1 (R132C) (Homo sapiens, UniProt O75874, R132C); assay: IDH enzyme assay, NADPH production or depletion measured by diaphorase/resazurin coupled detection; format: biochemical; settings: read-out: Compound IC50 (M) IDH1 (R132C)
Description: (§1) Compounds were tested against 2 enzymes.
(§2) The production or depletion of NADPH by IDH enzymes was measured by diaphorase/resazurin coupled detection.

IDH1 (R132H) = IDH1 (R132H) (Homo sapiens, UniProt O75874, R132H); assay: as above; format: biochemical; settings: read-out: Compound IC50 (M) IDH1 (R132H)
Sequence of IDH1 (R132H) (O75874 whole entry R132H): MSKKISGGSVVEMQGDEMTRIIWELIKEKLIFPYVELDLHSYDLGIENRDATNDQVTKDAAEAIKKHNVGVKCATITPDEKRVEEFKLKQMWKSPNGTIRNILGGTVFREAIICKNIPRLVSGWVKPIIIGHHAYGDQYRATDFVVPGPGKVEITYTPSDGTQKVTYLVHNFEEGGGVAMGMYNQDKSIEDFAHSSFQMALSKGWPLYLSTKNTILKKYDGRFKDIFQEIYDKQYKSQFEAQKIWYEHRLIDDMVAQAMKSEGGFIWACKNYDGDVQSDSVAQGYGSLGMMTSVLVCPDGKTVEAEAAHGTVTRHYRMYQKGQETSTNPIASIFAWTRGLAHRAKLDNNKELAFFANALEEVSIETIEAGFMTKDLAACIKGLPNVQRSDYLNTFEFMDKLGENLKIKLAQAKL
Description: as §1, §2

Sequence of IDH1 (R132C) (O75874 whole entry R132C): as the sequence (O75874 whole entry R132H) above, with H132C counted along it

| SMILES | IC50 (IDH1 (R132C)) | IC50 (IDH1 (R132H)) |
| --- | --- | --- |
| Cc1cccc(NC(=O)c2nc(Cc3ccccc3)n3c2CN(C(=O)c2ccc[nH]2)CC3)c1 [Compound 5-1, 3-benzyl-7-(1H-pyrrole-2-carbonyl)-N-(m-tolyl)-5,6,7,8-tetrahydroimidazo[1,5-a]pyrazine-1-carboxamide] | 3.1e-06 M | 5.36e-07 M |
| C[C@H](O)c1cccc(NC(=O)c2nc(Cc3ccccc3)n3c2CN(C(=O)c2ccc[nH]2)CC3)c1 [Compound 5-2, (S)-3-benzyl-N-(3-(1-hydroxyethyl)phenyl)-7-(1H-pyrrole-2-carbonyl)-5,6,7,8-tetrahydroimidazo[1,5-a]pyrazine-1-carboxamide] |  | 1.64e-06 M |
